≈ marks a conversion by molar mass, not a printed value.
Key:
Type in all cases: cell-based
[1] = system: Staphylococcus aureus FDA 209PJc-1; assay: Antibacterial activity, agar-dilution MIC, organism No. 1; settings: Staphylococcus aureus, FDA209PJC1; Organism No. 1, bouillon-agar; read-out: Minimum Inhibitory Concentration
In short: (§1)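 MICs were determined by agar dilution on bouillon-agar medium. The value is the minimum concentration of specimen inhibiting growth, expressed as μg/ml of culture medium.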

[2] = system: Staphylococcus aureus Terajima; assay: Antibacterial activity, agar-dilution MIC, organism No. 2; settings: Staphylococcus aureus; Organism No. 2, bouillon-agar; read-out: Minimum Inhibitory Concentration
In short: as §1

[3] = system: Staphylococcus aureus MS 353; assay: Antibacterial activity, agar-dilution MIC, organism No. 3; settings: Staphylococcus aureus, MS353; Organism No. 3, bouillon-agar; read-out: Minimum Inhibitory Concentration
In short: as §1

[4] = system: Escherichia coli NIHJ-JC-2; assay: Antibacterial activity, agar-dilution MIC, organism No. 5; settings: Escherichia coli, NIHJJC2; Organism No. 5, bouillon-agar; read-out: Minimum Inhibitory Concentration
In short: as §1

[5] = system: Escherichia coli K12 C600 IAM 1264; assay: Antibacterial activity, agar-dilution MIC, organism No. 6; settings: Escherichia coli, IAM1264; Organism No. 6, bouillon-agar; read-out: Minimum Inhibitory Concentration
In short: as §1

[6] = system: Klebsiella pneumoniae PCI-602; assay: Antibacterial activity, agar-dilution MIC, organism No. 7; settings: Klebsiella pneumoniae, PCI602; Organism No. 7, bouillon-agar; read-out: Minimum Inhibitory Concentration
In short: as §1

[7] = system: Salmonella typhimurium IID 971; assay: Antibacterial activity, agar-dilution MIC, organism No. 8; settings: Salmonella enterica; Organism No. 8, bouillon-agar; read-out: Minimum Inhibitory Concentration
In short: as §1

Salmonella typhi 901 = assay: Antibacterial activity, agar-dilution MIC, organism No. 9; settings: Salmonella enterica, TYPHI, read-out: Minimum Inhibitory Concentration
In short: as §1

[8] = system: Salmonella paratyphi-A 1015; assay: Antibacterial activity, agar-dilution MIC, organism No. 10; settings: Salmonella enterica, PARATYPHI, read-out: Minimum Inhibitory Concentration
In short: as §1

[9] = system: Salmonella shottmuelleri 8006; assay: Antibacterial activity, agar-dilution MIC, organism No. 11; settings: Salmonella, 8006; Organism No. 11, bouillon-agar; read-out: Minimum Inhibitory Concentration
In short: as §1

[10] = system: Salmonella enteritidis G 14; assay: Antibacterial activity, agar-dilution MIC, organism No. 12; settings: Salmonella enterica, ENTERITIDIS; Organism No. 12, bouillon-agar; read-out: Minimum Inhibitory Concentration
In short: as §1

[11] = system: Serratia marcescens IAM 1184; assay: Antibacterial activity, agar-dilution MIC, organism No. 13; settings: Serratia marcescens, IAM1184; Organism No. 13, bouillon-agar; read-out: Minimum Inhibitory Concentration
Source text: Agar-dilution method was used for determination of the antibacterial activity and antifungal activity while using bouillon-agar culture medium, and the minimum inhibitory concentration of the specimen was expressed by μg/ml of the culture medium.

[12] = system: Bacillus subtilis ATCC 6633; assay: Antibacterial activity, agar-dilution MIC, organism No. 14; settings: Bacillus subtilis, ATCC6633; Organism No. 14, bouillon-agar; read-out: Minimum Inhibitory Concentration
In short: as §1

[13] = system: Pseudomonas aeruginosa IFO 3445; assay: Antibacterial activity, agar-dilution MIC, organism No. 15; settings: Pseudomonas aeruginosa, IFO3445; Organism No. 15, bouillon-agar; read-out: Minimum Inhibitory Concentration
In short: as §1

[14] = system: Pseudomonas aeruginosa NCTC 10490; assay: Antibacterial activity, agar-dilution MIC, organism No. 16; settings: Pseudomonas aeruginosa, NCTC10490; Organism No. 16, bouillon-agar; read-out: Minimum Inhibitory Concentration
In short: as §1

[15] = system: Pseudomonas aeruginosa PAO 1; assay: Antibacterial activity, agar-dilution MIC, organism No. 17; settings: Pseudomonas aeruginosa, PAO1; Organism No. 17, bouillon-agar; read-out: Minimum Inhibitory Concentration
In short: as §1

[16] = system: Proteus morganii IFO 3848; assay: Antibacterial activity, agar-dilution MIC, organism No. 18; settings: Morganella morganii, IFO3848; Organism No. 18, bouillon-agar; read-out: Minimum Inhibitory Concentration
In short: as §1

[17] = system: Proteus mirabilis IFO 3849; assay: Antibacterial activity, agar-dilution MIC, organism No. 19; settings: Proteus mirabilis, IFO3849; Organism No. 19, bouillon-agar; read-out: Minimum Inhibitory Concentration
In short: as §1

Proteus vulgaris OX-19 = assay: Antibacterial activity, agar-dilution MIC, organism No. 20; settings: Proteus vulgaris, OX19; Organism No. 20, bouillon-agar; read-out: Minimum Inhibitory Concentration
In short: as §1

Proteus vulgaris HX-19 = assay: Antibacterial activity, agar-dilution MIC, organism No. 21; settings: Proteus vulgaris, HX19; Organism No. 21, bouillon-agar; read-out: Minimum Inhibitory Concentration
In short: as §1

[18] = system: Proteus rettgeri IFO 3850; assay: Antibacterial activity, agar-dilution MIC, organism No. 22; settings: Providencia rettgeri, IFO3850; Organism No. 22, bouillon-agar; read-out: Minimum Inhibitory Concentration
In short: as §1

[19] = system: Enterobacter aerogenes ATCC 13048; assay: Antibacterial activity, agar-dilution MIC, organism No. 23; settings: Klebsiella aerogenes, ATCC13048; Organism No. 23, bouillon-agar; read-out: Minimum Inhibitory Concentration
In short: as §1

Enterobacter cloacae 963 = assay: Antibacterial activity, agar-dilution MIC, organism No. 24; settings: Enterobacter cloacae, 963; Organism No. 24, bouillon-agar; read-out: Minimum Inhibitory Concentration
In short: as §1

[20] = system: Micrococcus luteus ATCC 9341; assay: Antibacterial activity, agar-dilution MIC, organism No. 25; settings: Micrococcus luteus, ATCC9341; Organism No. 25, bouillon-agar; read-out: Minimum Inhibitory Concentration
In short: as §1

[21] = system: Streptococcus pyogenes IFO 3340; assay: Antibacterial activity, agar-dilution MIC, organism No. 26; settings: Streptococcus pyogenes, IFO3340; Organism No. 26, bouillon-agar; read-out: Minimum Inhibitory Concentration
In short: as §1

[22] = system: Streptococcus faecium IFO 3826; assay: Antibacterial activity, agar-dilution MIC, organism No. 27; settings: Enterococcus faecium, IFO3826; Organism No. 27, bouillon-agar; read-out: Minimum Inhibitory Concentration
In short: as §1

[23] = system: Mycoplasma pneumoniae IID817; assay: Antimycoplasmal activity, MIC by phenol red colour change, organism No. 28; settings: Mycoplasma, IID817; Organism No. 28, PPLO broth + 1% glucose, 37° C.; read-out: Minimum Inhibitory Concentration (MIC)
Experimental: Mycoplasma pneumoniae IID817 was used as the test microorganism in a culture medium prepared by adding 1% of glucose to "PPLO broth (manufactured by Difco Co.) liquid culture medium" at 37° C. with phenol red as an indicator, thereby culturing the test microorganism.

[24] = system: Candida albicans IAM 4905; assay: Antifungal activity, agar-dilution MIC, organism No. 29; settings: Candida albicans, IAM4905; Organism No. 29, bouillon-agar; read-out: Minimum Inhibitory Concentration
In short: as §1

[25] = system: Aspergillus niger IFO 6342; assay: Antifungal activity, agar-dilution MIC, organism No. 30; settings: Aspergillus niger, IFO6342; Organism No. 30, bouillon-agar; read-out: Minimum Inhibitory Concentration
In short: as §1

[26] = system: Streptococcus pyogenes Cook; assay: Antibacterial activity, agar-dilution MIC, organism No. 4; settings: Streptococcus pyogenes; Organism No. 4, bouillon-agar; read-out: Minimum Inhibitory Concentration
In short: as §1

Row | Compound | MIC [1] [µg/mL] | MIC [2] [µg/mL] | MIC [3] [µg/mL] | MIC [4] [µg/mL] | MIC [5] [µg/mL] | MIC [6] [µg/mL] | MIC [7] [µg/mL] | MIC (Salmonella typhi 901) [µg/mL] | MIC [8] [µg/mL] | MIC [9] [µg/mL] | MIC [10] [µg/mL] | MIC [11] [µg/mL] | MIC [12] [µg/mL] | MIC [13] [µg/mL] | MIC [14] [µg/mL] | MIC [15] [µg/mL] | MIC [16] [µg/mL] | MIC [17] [µg/mL] | MIC (Proteus vulgaris OX-19) [µg/mL] | MIC (Proteus vulgaris HX-19) [µg/mL] | other results
1 | [C-]#[N+]C12CC3(/C=C/C(=O)Nc4cccc([N+](=O)[O-])c4)OC3C1O2 (stereo not drawn) [compound 48] | 0.2 (≈ 0.638 µM) | 0.39 (≈ 1.24 µM) | 0.1 (≈ 0.319 µM) | 25 (≈ 79.8 µM) | 25 (≈ 79.8 µM) | 0.2 (≈ 0.638 µM) | 3.13 (≈ 9.99 µM) | 3.13 (≈ 9.99 µM) | 0.39 (≈ 1.24 µM) | 0.39 (≈ 1.24 µM) | 3.13 (≈ 9.99 µM) | 6.25 (≈ 20 µM) | 6.25 (≈ 20 µM) | > 200 | > 200 | > 200 | 0.2 (≈ 0.638 µM) | 12.5 (≈ 39.9 µM) | < 0.05 | < 0.05 | MIC [18]: 1.56 µg/mL (≈ 4.98 µM); MIC [19]: > 200 µg/mL; MIC (Enterobacter cloacae 963): 25 µg/mL (≈ 79.8 µM); MIC [20]: < 0.05 µg/mL; MIC [21]: 0.39 µg/mL (≈ 1.24 µM); MIC [22]: 6.25 µg/mL (≈ 20 µM); MIC [23]: < 0.2 µg/mL; MIC [24]: 3.13 µg/mL (≈ 9.99 µM); MIC [25]: 3.13 µg/mL (≈ 9.99 µM)
2 | [C-]#[N+]C12CC3(/C=C/C(=O)Nc4ccccc4N)OC3C1O2 (stereo not drawn) [compound 61] | 3.13 (≈ 11 µM) | 12.5 (≈ 44.1 µM) | 3.13 (≈ 11 µM) | 12.5 (≈ 44.1 µM) | 12.5 (≈ 44.1 µM) | 1.56 (≈ 5.51 µM) | 6.25 (≈ 22.1 µM) | 3.13 (≈ 11 µM) | 3.13 (≈ 11 µM) | 3.13 (≈ 11 µM) | 3.13 (≈ 11 µM) | 25 (≈ 88.2 µM) | 25 (≈ 88.2 µM) | > 200 | > 200 | > 200 | 3.13 (≈ 11 µM) | 12.5 (≈ 44.1 µM) | 3.13 (≈ 11 µM) | 1.56 (≈ 5.51 µM) | MIC [18]: 3.13 µg/mL (≈ 11 µM); MIC [19]: > 200 µg/mL; MIC (Enterobacter cloacae 963): 100 µg/mL (≈ 353 µM); MIC [20]: 0.78 µg/mL (≈ 2.75 µM); MIC [21]: 6.25 µg/mL (≈ 22.1 µM); MIC [22]: 100 µg/mL (≈ 353 µM); MIC [23]: < 0.2 µg/mL; MIC [24]: 25 µg/mL (≈ 88.2 µM); MIC [25]: 100 µg/mL (≈ 353 µM)
3 | [C-]#[N+]C12CC3(/C=C/C(=O)Nc4nccs4)OC3C1O2 (stereo not drawn) [compound 65] | < 0.1 | 0.39 (≈ 1.42 µM) | < 0.1 | 12.5 (≈ 45.4 µM) | 6.25 (≈ 22.7 µM) | 1.56 (≈ 5.67 µM) | 25 (≈ 90.8 µM) | 3.13 (≈ 11.4 µM) | 1.56 (≈ 5.67 µM) | 1.56 (≈ 5.67 µM) | 3.13 (≈ 11.4 µM) | 12.5 (≈ 45.4 µM) | 12.5 (≈ 45.4 µM) | > 200 | > 200 | > 200 | 1.56 (≈ 5.67 µM) | > 200 | 3.13 (≈ 11.4 µM) | 0.2 (≈ 0.727 µM) | MIC [26]: 12.5 µg/mL (≈ 45.4 µM); MIC [18]: 100 µg/mL (≈ 363 µM); MIC [19]: > 200 µg/mL; MIC (Enterobacter cloacae 963): > 200 µg/mL; MIC [20]: 0.1 µg/mL (≈ 0.363 µM); MIC [23]: < 0.2 µg/mL; MIC [24]: 12.5 µg/mL (≈ 45.4 µM); MIC [25]: 50 µg/mL (≈ 182 µM)
4 | [C-]#[N+]C12CC3(/C=C/C(=O)NC4=NCCS4)OC3C1O2 (stereo not drawn) [compound 66] | 12.5 (≈ 45.1 µM) | 25 (≈ 90.2 µM) | 12.5 (≈ 45.1 µM) | 25 (≈ 90.2 µM) | 50 (≈ 180 µM) | 6.25 (≈ 22.5 µM) | 25 (≈ 90.2 µM) | 6.25 (≈ 22.5 µM) | 12.5 (≈ 45.1 µM) | 12.5 (≈ 45.1 µM) | 6.25 (≈ 22.5 µM) | > 200 | 25 (≈ 90.2 µM) | > 200 | > 200 | > 200 | 3.13 (≈ 11.3 µM) | 200 (≈ 721 µM) | 3.13 (≈ 11.3 µM) | 3.13 (≈ 11.3 µM) | MIC [26]: 12.5 µg/mL (≈ 45.1 µM); MIC [18]: > 200 µg/mL; MIC [19]: > 200 µg/mL; MIC (Enterobacter cloacae 963): > 200 µg/mL; MIC [20]: 0.1 µg/mL (≈ 0.361 µM); MIC [23]: < 0.2 µg/mL; MIC [24]: 25 µg/mL (≈ 90.2 µM); MIC [25]: 50 µg/mL (≈ 180 µM)
